From patent publication US12478617B2, “Lipidated peptide inhibitors of interleukin-23 receptor” (JANSSEN BIOTECH, INC., priority 2021, dated 2025)
Starred links: 1 amine or outer side, 2 acyl side, 3 side chain; linkers in the order of their positions; H or OH if unused. Positions of bridges follow the written chain, without caps; N, C: chain ends. Non-standard residues stand in square brackets, D forms with d. Residues, ends and D or L forms follow the SMILES beside them. Groups on a side chain read outwards from the residue. *: point of attachment. CH3O(CH2CH2O)11CH2CH2CO = COCCOCCOCCOCCOCCOCCOCCOCCOCCOCCOCCOCCC(=O)*; PEG12 = NCCOCCOCCOCCOCCOCCOCCOCCOCCOCCOCCOCCOCCC(=O)O; Trp(7-Me) = Cc1cccc2c(C[C@H](N)C(=O)O)c[nH]c12; C18 diacid = O=C(O)CCCCCCCCCCCCCCCCC(=O)*; γGlu = O=C(O)[C@H](CCC(=O)[*:2])N[*:1]; 2Nal = N[C@@H](Cc1ccc2ccccc2c1)C(=O)O; Palmitoyl = CCCCCCCCCCCCCCCC(=O)*; 3Pal = N[C@@H](Cc1cccnc1)C(=O)O; αMeL = CC(C)C[C@](C)(N)C(=O)O; PEG4 = NCCOCCOCCOCCOCCC(=O)O; Pen = CC(C)(S)[C@H](N)C(=O)O; αMeK = C[C@](N)(CCCCN)C(=O)O; X3 = COCCOCCOCCOCCC(=O)*; Thp = NC1(C(=O)O)CCOCC1; Sar = CNCC(=O)O

Target: IL-23R-expressing DB cells (Homo sapiens, UniProt Q5VWK5)
Sequence (Q5VWK5 24-629 limits assumed): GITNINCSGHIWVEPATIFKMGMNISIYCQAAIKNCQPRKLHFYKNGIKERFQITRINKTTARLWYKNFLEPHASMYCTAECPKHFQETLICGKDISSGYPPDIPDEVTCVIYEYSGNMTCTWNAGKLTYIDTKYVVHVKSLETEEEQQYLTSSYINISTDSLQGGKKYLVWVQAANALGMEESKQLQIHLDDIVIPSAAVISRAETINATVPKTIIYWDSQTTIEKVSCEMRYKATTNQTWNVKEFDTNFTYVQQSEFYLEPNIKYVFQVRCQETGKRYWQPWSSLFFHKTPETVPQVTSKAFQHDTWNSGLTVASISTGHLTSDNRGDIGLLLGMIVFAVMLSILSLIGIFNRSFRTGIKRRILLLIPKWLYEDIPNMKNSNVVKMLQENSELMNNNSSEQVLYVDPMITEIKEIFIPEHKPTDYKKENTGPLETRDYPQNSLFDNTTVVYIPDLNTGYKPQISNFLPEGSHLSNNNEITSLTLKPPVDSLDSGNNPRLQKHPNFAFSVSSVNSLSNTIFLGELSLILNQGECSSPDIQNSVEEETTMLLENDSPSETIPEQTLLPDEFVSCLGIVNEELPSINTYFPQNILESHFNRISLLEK
Assay: DB Cells IL23R pSTAT3 Cell Assay
Format: cell-based
Conditions: pSTAT3 (HTRF) in IL-23R-expressing DB cells, 0.5 nM IL-23, 30 minutes; Table 6 'IL-23 Cell Data'
Protocol: IL-23 is believed to play a central role in supporting and maintaining Th17 differentiation in vivo. This process is thought to be mediated primarily through the Signal Transducer and Activator of Transcription 3 (STAT3), with phosphorylation of STAT3 (to yield pSTAT3) leading to upregulation of RORC and pro-inflammatory IL-17. […] DB cells (ATCC #CRL-2289), cultured in RPMI-1640 medium (Thermo Scientific #11875093) supplemented with 10% FBS, were added at 5 X 10E5 cells/well and incubated for 30 minutes at 37° C. in a 5% CO2 humidified incubator. Changes in phospho-STAT3 levels in the cell lysates were detected using the Cisbio HTRF pSTAT3 (Tyr705) Cellular Assay Kit (Cisbio #62AT3PEH), according to manufacturer's Two Plate Assay protocol. Where not shown or it is marked as “0”, data was not yet determined.

COc1ccc(C[C@H](NC(=O)[C@H]2NC(=O)[C@H](CCCCNC(=O)CCOCCOCCOCCOCCOCCOCCOCCOCCOCCOCCOCCOCCNC(=O)CC[C@H](NC(=O)CCCCCCCCCCCCCCCCC(=O)O)C(=O)O)NC(=O)[C@H](Cc3c[nH]c4c(C)cccc34)NC(=O)[C@H]([C@@H](C)O)NC(=O)[C@H](CC(C)C)NC(=O)[C@@H](NC(C)=O)C(C)(C)SSC2(C)C)C(=O)N[C@@H](Cc2ccc3ccccc3c2)C(=O)NC2(C(=O)N[C@@H](CC(C)C)C(=O)N[C@@H](CC(C)C)C(=O)N[C@@H](Cc3cccnc3)C(=O)N(C)CC(N)=O)CCOCC2)cc1 [Example 268, Ac-[Pen]-L-T-[Trp(7-Me)]-[Lys(PEG12_IsoGlu_C18_Diacid)]-[Pen]-[Phe(4-OMe)]-[2Nal]-[THP]-L-L-[3Pal]-[Sarc]-NH2] (Ac-[Pen]LT[Trp(7-Me)]K([PEG12-γGlu-C18 diacid])[Pen]Y(Me)[2Nal][Thp]LL[3Pal][Sar]-NH2; disulfide 1-6)
IC50: > 10 nM

CCCCCCCCCCCCCCCC(=O)N[C@@H](CCC(=O)NCCOCCOCCOCCOCCOCCOCCOCCOCCOCCOCCOCCOCCC(=O)NCCCC[C@](C)(NC(=O)[C@H](Cc1ccc2ccccc2c1)NC(=O)[C@H](Cc1ccc(OC)cc1)NC(=O)[C@H]1NC(=O)[C@H](CCCCNC(C)=O)NC(=O)[C@H](Cc2c[nH]c3c(C)cccc23)NC(=O)[C@H]([C@@H](C)O)NC(=O)[C@H](CC(N)=O)NC(=O)[C@@H](NC(C)=O)C(C)(C)SSC1(C)C)C(=O)N[C@@H](C)C(=O)N[C@@H](C)C(=O)N[C@@H](Cc1cccnc1)C(=O)N(C)CC(N)=O)C(=O)O [Example 225, Ac-[Pen]-N-T-[Trp(7-Me)]-[Lys(Ac)]-[Pen]-[Phe(4-OMe)]-[2Nal]-[aMeLys(PEG12_IsoGlu_Palm)]-A-A-[3Pal]-[Sarc]-NH2]
IC50: 0.811 nM

COCCOCCOCCOCCC(=O)N[C@@H]1C(=O)N[C@@H](CC(C)C)C(=O)N[C@@H]([C@@H](C)O)C(=O)N[C@@H](Cc2c[nH]c3c(C)cccc23)C(=O)N[C@@H](CCCCNC(C)=O)C(=O)N[C@H](C(=O)N[C@@H](Cc2ccccc2)C(=O)N[C@@H](Cc2ccc3ccccc3c2)C(=O)N[C@@](C)(CC(C)C)C(=O)N[C@@H](CC(C)C)C(=O)N[C@@H](CC(N)=O)C(=O)N[C@@H](Cc2cccnc2)C(=O)N(C)CC(N)=O)C(C)(C)SSC1(C)C [Example 213, [PEG4_OMe]-[Pen]-L-T-[Trp(7-Me)]-[Lys(Ac)]-[Pen]-F-[2Nal]-[aMeLeu]-L-N-[3Pal]-[Sarc]-NH2] (X3-[Pen]LT[Trp(7-Me)]K(Ac)[Pen]F[2Nal][αMeL]LN[3Pal][Sar]-NH2; disulfide 1-6)
IC50: 0.13 nM

COc1ccc(C[C@H](NC(=O)[C@H]2NC(=O)[C@H](CCCCNC(=O)CC[C@H](NC(=O)CCCCCCCCCCCCCCCCC(=O)O)C(=O)O)NC(=O)[C@H](Cc3c[nH]c4c(C)cccc34)NC(=O)[C@H]([C@@H](C)O)NC(=O)[C@H](CC(C)C)NC(=O)[C@@H](NC(C)=O)C(C)(C)SSC2(C)C)C(=O)N[C@@H](Cc2ccc3ccccc3c2)C(=O)NC2(C(=O)N[C@@H](CCCCNC(C)=O)C(=O)N[C@@H](CC(C)C)C(=O)N[C@@H](Cc3cccnc3)C(=O)N(C)CC(N)=O)CCOCC2)cc1 [Example 271, Ac-[Pen]-L-T-[Trp(7-Me)]-[Lys(IsoGlu_C18_Diacid)]-[Pen]-[Phe(4-OMe)]-[2Nal]-[THP]-[Lys(Ac)]-L-[3Pal]-[Sarc]-NH2] (Ac-[Pen]LT[Trp(7-Me)]K([γGlu-C18 diacid])[Pen]Y(Me)[2Nal][Thp]K(Ac)L[3Pal][Sar]-NH2; disulfide 1-6)
IC50: > 10 nM

COCCOCCOCCOCCOCCOCCOCCOCCOCCOCCOCCOCCC(=O)N[C@@H]1C(=O)N[C@@H](CC(N)=O)C(=O)N[C@@H]([C@@H](C)O)C(=O)N[C@@H](Cc2c[nH]c3c(C)cccc23)C(=O)N[C@@H](CCCCNC(C)=O)C(=O)N[C@H](C(=O)N[C@@H](Cc2ccccc2)C(=O)N[C@@H](Cc2ccc3ccccc3c2)C(=O)N[C@@](C)(CC(C)C)C(=O)N[C@@H](CC(C)C)C(=O)N[C@@H](CC(N)=O)C(=O)N[C@@H](Cc2cccnc2)C(=O)N(C)CC(N)=O)C(C)(C)SSC1(C)C [Example 207, [PEG12_OMe]-[Pen]-N-T-[Trp(7-Me)]-[Lys(Ac)]-[Pen]-F-[2Nal]-[aMeLeu]-L-N-[3Pal]-[Sarc]-NH2] ({CH3O(CH2CH2O)11CH2CH2CO}-[Pen]NT[Trp(7-Me)]K(Ac)[Pen]F[2Nal][αMeL]LN[3Pal][Sar]-NH2; disulfide 1-6)
IC50: 0.631 nM

COCCOCCOCCOCCOCCOCCOCCOCCOCCOCCOCCOCCC(=O)N[C@@H]1C(=O)N[C@@H](CC(C)C)C(=O)N[C@@H]([C@@H](C)O)C(=O)N[C@@H](Cc2c[nH]c3c(C)cccc23)C(=O)N[C@@H](CCCCNC(C)=O)C(=O)N[C@H](C(=O)N[C@@H](Cc2ccccc2)C(=O)N[C@@H](Cc2ccc3ccccc3c2)C(=O)N[C@@](C)(CC(C)C)C(=O)N[C@@H](CC(C)C)C(=O)N[C@@H](CC(N)=O)C(=O)N[C@@H](Cc2cccnc2)C(=O)N(C)CC(N)=O)C(C)(C)SSC1(C)C [Example 209, [PEG12_OMe]-[Pen]-L-T-[Trp(7-Me)]-[Lys(Ac)]-[Pen]-F-[2Nal]-[aMeLeu]-L-N-[3Pal]-[Sarc]-NH2] ({CH3O(CH2CH2O)11CH2CH2CO}-[Pen]LT[Trp(7-Me)]K(Ac)[Pen]F[2Nal][αMeL]LN[3Pal][Sar]-NH2; disulfide 1-6)
IC50: 0.07 nM

COc1ccc(C[C@H](NC(=O)[C@H]2NC(=O)[C@H](CCCCNC(=O)CCOCCOCCOCCOCCNC(=O)CCCCCCCCCCCCCCCCC(=O)O)NC(=O)[C@H](Cc3c[nH]c4c(C)cccc34)NC(=O)[C@H]([C@@H](C)O)NC(=O)[C@H](CC(C)C)NC(=O)[C@@H](NC(C)=O)C(C)(C)SSC2(C)C)C(=O)N[C@@H](Cc2ccc3ccccc3c2)C(=O)NC2(C(=O)N[C@@H](CC(C)C)C(=O)N[C@@H](CC(C)C)C(=O)N[C@@H](Cc3cccnc3)C(=O)N(C)CC(N)=O)CCOCC2)cc1 [Example 262, Ac-[Pen]-L-T-[Trp(7-Me)]-[Lys(PEG4_C18_Diacid)]-[Pen]-[Phe(4-OMe)]-[2Nal]-[THP]-L-L-[3Pal]-[Sarc]-NH2] (Ac-[Pen]LT[Trp(7-Me)]K([PEG4-C18 diacid])[Pen]Y(Me)[2Nal][Thp]LL[3Pal][Sar]-NH2; disulfide 1-6)
IC50: > 10 nM

CCCCCCCCCCCCCCCC(=O)N[C@@H](CCC(=O)NCCOCCOCCOCCOCCOCCOCCOCCOCCOCCOCCOCCOCCC(=O)NCCCC[C@](C)(NC(=O)[C@H](Cc1ccc2ccccc2c1)NC(=O)[C@H](Cc1ccc(OC)cc1)NC(=O)[C@H]1NC(=O)[C@H](CCCCNC(C)=O)NC(=O)[C@H](Cc2c[nH]c3c(C)cccc23)NC(=O)[C@H]([C@@H](C)O)NC(=O)[C@H](C)NC(=O)[C@@H](NC(C)=O)C(C)(C)SSC1(C)C)C(=O)N[C@@H](CCCCNC(C)=O)C(=O)N[C@@H](CC(N)=O)C(=O)N[C@@H](Cc1cccnc1)C(=O)N(C)CC(N)=O)C(=O)O [Example 226, Ac-[Pen]-A-T-[Trp(7-Me)]-[Lys(Ac)]-[Pen]-[Phe(4-OMe)]-[2Nal]-[aMeLys(PEG12_IsoGlu_Palm)]-[Lys(Ac)]-N-[3Pal]-[Sarc]-NH2] (Ac-[Pen]AT[Trp(7-Me)]K(Ac)[Pen]Y(Me)[2Nal][αMeK]([PEG12-γGlu-Palmitoyl])K(Ac)N[3Pal][Sar]-NH2; disulfide 1-6)
IC50: 0.633 nM
